How the values were obtained:
Settings in all cases: exposure time: 72 h
[1] = system: E13 (patient-derived glioblastoma stem cells of classical subtype); assay: surviving fraction (nuclei count normalised to DMSO); higher = more cells surviving (less toxic)
[2] = system: E34 (patient-derived glioblastoma stem cells of proneural subtype); assay: as above
[3] = system: FT3469 (normal neural stem cell line); assay: as above
[4] = system: E57 (patient-derived glioblastoma stem cells of mesenchymal subtype); assay: as above
[5] = system: E31 (patient-derived glioblastoma stem cells of proneural subtype); assay: as above
[6] = system: E21 (patient-derived glioblastoma stem cells of mesenchymal subtype); assay: as above
[7] = system: E28 (patient-derived glioblastoma stem cells of classical subtype); assay: as above
[8] = system: E13; assay: phenotypic distance (Euclidean, principal components) from DMSO controls (arbitrary units); higher = stronger morphological change
[9] = system: E34; assay: as above
[10] = system: FT3469; assay: as above
[11] = system: E57; assay: as above
[12] = system: E31; assay: as above
[13] = system: E21; assay: as above
[14] = system: E28; assay: as above
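Wherever phenotypic distance (Euclidean, principal components) from DMSO controls is given: cell Painting imaging in 384-well plates, CellProfiler features reduced to at least 20 principal components, Euclidean distance versus same-plate DMSO vehicle wells (0.1% v/v), median over six images per well.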
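Wherever surviving fraction (nuclei count normalised to DMSO) is given: nuclei counted by high-content imaging of Hoechst-stained cells in laminin-coated 384-well plates, relative to 0.1% DMSO vehicle wells, with staurosporine as cell-death control.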

O=C(Nc1ccc([N+](=O)[O-])cc1Cl)c1cc(Cl)ccc1O [Niclosamide]
Settings | phenotypic distance | surviving fraction
[1], 4.1 nM | – | 0.397
[1], 12.3 nM | – | 0.192
[1], 37 nM | – | 0.156
[1], 111.1 nM | – | 0.163
[1], 333.3 nM | – | 0.148
[1], 1000 nM | – | 0.132
[1], 3000 nM | – | 0.117
[2], 4.1 nM | – | 0.708
[2], 12.3 nM | – | 0.542
[2], 37 nM | – | 0.562
[2], 111.1 nM | – | 0.417
[2], 333.3 nM | – | 0.406
[2], 1000 nM | – | 0.452
[2], 3000 nM | – | 0.331
[3], 4.1 nM | – | 0.772
[3], 12.3 nM | – | 0.654
[3], 37 nM | – | 0.297
[3], 111.1 nM | – | 0.244
[3], 333.3 nM | – | 0.227
[3], 1000 nM | – | 0.262
[3], 3000 nM | – | 0.28
[4], 4.1 nM | – | 0.572
[4], 12.3 nM | – | 0.303
[4], 37 nM | – | 0.2
[4], 111.1 nM | – | 0.176
[4], 333.3 nM | – | 0.166
[4], 1000 nM | – | 0.136
[4], 3000 nM | – | 0.149
[5], 4.1 nM | – | 0.927
[5], 12.3 nM | – | 0.495
[5], 37 nM | – | 0.132
[5], 111.1 nM | – | 0.072
[5], 333.3 nM | – | 0.0854
[5], 1000 nM | – | 0.0502
[5], 3000 nM | – | 0.0703
[6], 4.1 nM | – | 0.602
[6], 12.3 nM | – | 0.363
[6], 37 nM | – | 0.0551
[6], 111.1 nM | – | 0.0103
[6], 333.3 nM | – | 0.0028
[6], 1000 nM | – | 0.00933
[6], 3000 nM | – | 0.00467
[7], 4.1 nM | – | 0.616
[7], 12.3 nM | – | 0.446
[7], 37 nM | – | 0.147
[7], 111.1 nM | – | 0.0916
[7], 333.3 nM | – | 0.0952
[7], 1000 nM | – | 0.0557
[7], 3000 nM | – | 0.0898
[8], 4.1 nM | 4.25 | –
[8], 12.3 nM | 4.77 | –
[8], 37 nM | 6.86 | –
[8], 111.1 nM | 9.47 | –
[8], 333.3 nM | 8.21 | –
[8], 1000 nM | 8.6 | –
[8], 3000 nM | 8.06 | –
[9], 4.1 nM | 1.82 | –
[9], 12.3 nM | 2.56 | –
[9], 37 nM | 5.44 | –
[9], 111.1 nM | 8.06 | –
[9], 333.3 nM | 7.5 | –
[9], 1000 nM | 7.96 | –
[9], 3000 nM | 7.89 | –
[10], 4.1 nM | 2.28 | –
[10], 12.3 nM | 3.48 | –
[10], 37 nM | 7.75 | –
[10], 111.1 nM | 7.91 | –
[10], 333.3 nM | 9.29 | –
[10], 1000 nM | 9.03 | –
[10], 3000 nM | 10.3 | –
[11], 4.1 nM | 4.23 | –
[11], 12.3 nM | 7.26 | –
[11], 37 nM | 6.17 | –
[11], 111.1 nM | 4.83 | –
[11], 333.3 nM | 6.2 | –
[11], 1000 nM | 6.94 | –
[11], 3000 nM | 6.28 | –
[12], 4.1 nM | 3.09 | –
[12], 12.3 nM | 4.78 | –
[12], 37 nM | 5.57 | –
[12], 111.1 nM | 10.1 | –
[12], 333.3 nM | 8.82 | –
[12], 1000 nM | 9.48 | –
[12], 3000 nM | 7.83 | –
[13], 4.1 nM | 4.72 | –
[13], 12.3 nM | 6.44 | –
[13], 37 nM | 6.49 | –
[13], 111.1 nM | 11.8 | –
[13], 333.3 nM | 11.9 | –
[13], 1000 nM | 12.4 | –
[13], 3000 nM | 14 | –
[14], 4.1 nM | 1.99 | –
[14], 12.3 nM | 2.43 | –
[14], 37 nM | 6.04 | –
[14], 111.1 nM | 8.95 | –
[14], 333.3 nM | 7.22 | –
[14], 1000 nM | 8.51 | –
[14], 3000 nM | 7.9 | –

O=C(/C=C\n1cnc(-c2cc(C(F)(F)F)cc(C(F)(F)F)c2)n1)NNc1cnccn1 [Selinexor]
Settings | phenotypic distance | surviving fraction
[1], 4.1 nM | – | 0.654
[1], 12.3 nM | – | 0.572
[1], 37 nM | – | 0.418
[1], 111.1 nM | – | 0.355
[1], 333.3 nM | – | 0.384
[1], 1000 nM | – | 0.31
[1], 3000 nM | – | 0.242
[2], 4.1 nM | – | 0.782
[2], 12.3 nM | – | 0.833
[2], 37 nM | – | 0.867
[2], 111.1 nM | – | 0.547
[2], 333.3 nM | – | 0.582
[2], 1000 nM | – | 0.569
[2], 3000 nM | – | 0.582
[3], 4.1 nM | – | 0.614
[3], 12.3 nM | – | 0.659
[3], 37 nM | – | 0.616
[3], 111.1 nM | – | 0.614
[3], 333.3 nM | – | 0.692
[3], 1000 nM | – | 0.556
[3], 3000 nM | – | 0.612
[4], 4.1 nM | – | 0.554
[4], 12.3 nM | – | 0.554
[4], 37 nM | – | 0.43
[4], 111.1 nM | – | 0.286
[4], 333.3 nM | – | 0.313
[4], 1000 nM | – | 0.32
[4], 3000 nM | – | 0.244
[5], 4.1 nM | – | 0.703
[5], 12.3 nM | – | 0.51
[5], 37 nM | – | 0.444
[5], 111.1 nM | – | 0.38
[5], 333.3 nM | – | 0.311
[5], 1000 nM | – | 0.331
[5], 3000 nM | – | 0.239
[6], 4.1 nM | – | 0.753
[6], 12.3 nM | – | 0.729
[6], 37 nM | – | 0.667
[6], 111.1 nM | – | 0.572
[6], 333.3 nM | – | 0.541
[6], 1000 nM | – | 0.51
[6], 3000 nM | – | 0.315
[7], 4.1 nM | – | 0.643
[7], 12.3 nM | – | 0.605
[7], 37 nM | – | 0.441
[7], 111.1 nM | – | 0.4
[7], 333.3 nM | – | 0.327
[7], 1000 nM | – | 0.373
[7], 3000 nM | – | 0.246
[8], 4.1 nM | 1.6 | –
[8], 12.3 nM | 2.09 | –
[8], 37 nM | 3.06 | –
[8], 111.1 nM | 3.35 | –
[8], 333.3 nM | 3.49 | –
[8], 1000 nM | 3.23 | –
[8], 3000 nM | 4.73 | –
[9], 4.1 nM | 1.14 | –
[9], 12.3 nM | 1.28 | –
[9], 37 nM | 1.6 | –
[9], 111.1 nM | 1.64 | –
[9], 333.3 nM | 1.71 | –
[9], 1000 nM | 1.72 | –
[9], 3000 nM | 2.17 | –
[10], 4.1 nM | 1.68 | –
[10], 12.3 nM | 2.14 | –
[10], 37 nM | 1.85 | –
[10], 111.1 nM | 1.78 | –
[10], 333.3 nM | 2.12 | –
[10], 1000 nM | 1.48 | –
[10], 3000 nM | 1.57 | –
[11], 4.1 nM | 2.64 | –
[11], 12.3 nM | 2.17 | –
[11], 37 nM | 2.78 | –
[11], 111.1 nM | 3.97 | –
[11], 333.3 nM | 4.39 | –
[11], 1000 nM | 5.44 | –
[11], 3000 nM | 6.2 | –
[12], 4.1 nM | 2.16 | –
[12], 12.3 nM | 2.72 | –
[12], 37 nM | 2.72 | –
[12], 111.1 nM | 3.08 | –
[12], 333.3 nM | 2.98 | –
[12], 1000 nM | 2.55 | –
[12], 3000 nM | 3.17 | –
[13], 4.1 nM | 2.91 | –
[13], 12.3 nM | 3.17 | –
[13], 37 nM | 3.01 | –
[13], 111.1 nM | 3.44 | –
[13], 333.3 nM | 3.53 | –
[13], 1000 nM | 3.96 | –
[13], 3000 nM | 4.26 | –
[14], 4.1 nM | 1.34 | –
[14], 12.3 nM | 1.88 | –
[14], 37 nM | 2.76 | –
[14], 111.1 nM | 2.65 | –
[14], 333.3 nM | 2.86 | –
[14], 1000 nM | 2.69 | –
[14], 3000 nM | 3.06 | –

From the supplement of paper PMC13207355
